# Reference: patent US4265901A, “2-Oxybenzimidazoline compounds” (priority 1979, dated 1981)
# Counter-ions that a name gives are not always drawn.
# Experiments:
# [1] = test system: calf; assay: Tolerability in calves (Example 19); assay type: in vivo
# Protocol: The compound of Example 3, 2-hydroxy-2,6-bis(trifluoromethyl)-4-nitrobenzimidazoline, sodium salt was evaluated as an ectoparasiticide when administered as pellets implanted in the ear of a calf numbered animal 106. The compound was formulated neat, in tablets about 1/8" thick. A total of 14 pellets was inserted into the left ear of a 215-kilogram calf, to supply a dose of about 5 mg./kg. […] Two other calves received intramuscular injections of aqueous solutions of 2-hydroxy-2,6-bis(trifluoromethyl)-4-nitrobenzimidazoline, sodium salt, to provide 5 or 7.5 mg./kg. of animal body weight. (animals 119 and 121 respectively). […] A control animal was also maintained throughout the test period.
# [2] = test system: blowfly larvae; assay: Blowfly larvae fed on serum of dosed guinea pigs; assay type: in vivo, Phormia regina; conditions: guinea pig, serum at 24 hours
# Protocol: (§1) Representative compounds of the present invention were evaluated against larvae of blowfly (Phormia regina) and against adult housefly (Musca domestica). In these evaluations, the candidate compound was administered to each of two male guinea pigs weighing from about 400 grams to about 1000 grams. Administration was via the intraperitoneal route, the compound having been formulated in sesame oil. At twenty-four hours following administration of the compound, blood was withdrawn from the guinea pigs. The serum portion was isolated and blowfly larvae and adult houseflies were fed on the serum. For the blowfly assay, 10 ml. of serum were placed in a test tube with a wick onto which 50 blowfly larvae were placed. The covered test tube was incubated at 27° C. for 24 hours, at which time efficacy of the candidate compound was determined as the percent mortality of the blowfly larvae, adjusted by normal mortality in a control, and reported according to the following rating scale:
# (§2) Percent mortality was determined separately for each guinea pig.
# [3] = test system: adult housefly; assay: Adult houseflies fed on serum of dosed guinea pigs; assay type: in vivo, Musca domestica; conditions: guinea pig, serum at 24 hours
# Protocol: as §1, §2
# (§3) For the adult housefly test, 10 ml. of serum were employed to saturate a wick which was placed in a petri dish. Twenty-five chilled houseflies were placed in the dish which was then incubated for 24 hours at 27° C. and 50% relative humidity. After the end of the twenty-four hours, the efficacy of the candidate compound was determined as the percent mortality of housefly, adjusted as for blowfly by normal mortality in a control and reported according to the same scale as above.
# [4] = test system: guinea pigs; assay: Mortality of guinea pigs after intraperitoneal dosing; assay type: in vivo, guinea pig; conditions: for death of guinea pigs: two animals
# Protocol: as §1, with “scale: […]” for “scale:”
# [5] = test system: adult housefly; assay: Efficacy against adult housefly, calves subcutaneous pellets (Example 20); assay type: in vivo, Musca domestica; conditions: Musca domestica, sc, test day per line
# Protocol: as §3
# The compound of Example 2, 2-hydroxy-2-(1,1,2,2-tetrafluoroethyl)-4-nitro-6-(trifluoromethyl)benzimidazoline sodium salt, was formulated neat into tablets, each containing about 85 mg. of compound.
# These pellets were implanted in the right shoulder area of two calves, weighing 400 and 373 kilograms respectively, to supply a dose of about 5 mg./kg. (animals #651 and 1511, respectively). Another calf (animal #656) was maintained as a control and two additional calves weighing 336 and 350 kilograms (animals #654 and 655, respectively) received pellets of 2-(1,1,2,2-tetrafluoroethyl)-4-nitro-6-(trifluoromethyl)benzimidazole, to supply a dose of about 5 mg./kg. of compound.
# (§4) As described in preceding examples, blood samples were withdrawn and analyzed for the concentration of the compound in the blood and percent efficacy against adult housefly and blowfly larvae.
# [6] = test system: blowfly larvae; assay: Efficacy against blowfly larvae, calves subcutaneous pellets (Example 20); assay type: in vivo; conditions: Phormia regina, sc, test day per line
# Protocol: as §1
# The compound of Example 2, 2-hydroxy-2-(1,1,2,2-tetrafluoroethyl)-4-nitro-6-(trifluoromethyl)benzimidazoline sodium salt, was formulated neat into tablets, each containing about 85 mg. of compound. […]
# as §4
# [7] = CRC Handbook of Chemistry and Physics; cited from earlier work
# [8] = calf 654, pellets about 5 mg./kg.
# [9] = calf 655, pellets about 5 mg./kg.
structure (smiles),measurement,setting,value
"O=[N+]([O-])c1cc(C(F)(F)F)cc2c1NC(O)(C(F)(F)F)N2 (centres unmarked) [Example 3, 2-Hydroxy-2,6-Bis(Trifluoromethyl)-4-Nitrobenzimidazoline, Sodium Salt, Monohydrate]",swelling post-insertion,"[1]; calf 106, 14 ear pellets, about 5 mg./kg., 6 hours and 1 day",Some swelling was noted
same,death of calf,"[1]; calf 121, 7.5 mg./kg. intramuscular",found dead on day 2
"O=[N+]([O-])c1cc(C(F)(F)F)cc2c1NC(O)(C(F)(F)C(F)F)N2 (centres unmarked) [Example 8, 2-Hydroxy-2-(1,1,2,2-Tetrafluoroethyl)-4-Nitro-6-(Trifluoromethyl)Benzimidazoline, Lithium Salt]","Efficacy Rating, Blowfly Larvae",[2]; 5 mg./kg. i.p.,5 (100% dead)
same,"Efficacy Rating, Adult Housefly",[3]; 5 mg./kg. i.p.,5 (100% dead)
same,death of guinea pigs,[4]; 20 mg./kg. i.p.,Both guinea pigs died
"O=[N+]([O-])c1cc(C(F)(F)F)cc2nc(C(F)(F)C(F)F)[nH]c12 [2-(1,1,2,2-tetrafluoroethyl)-4-nitro-6-(trifluoromethyl)benzimidazole, reference compound]",Emax at 5 mg/kg,[5]; [8],100%
same,Emax at 5 mg/kg,[5]; [9],100%
same,Emax at 5 mg/kg,[6]; [8],100%
same,Emax at 5 mg/kg,[6]; [9],100%
"N [Ammonia, ammonia]",Kb,[7],1.79×10^-5
"O=[N+]([O-])c1cc(C(F)(F)F)cc2c1NC(O)(C(F)(F)C(F)F)N2 (centres unmarked) [Example 6, 2-Hydroxy-2-(1,1,2,2-Tetrafluoroethyl)-4-Nitro-6-(Trifluoromethyl)Benzimidazoline, Calcium Salt]","Efficacy Rating, Blowfly Larvae",[2]; 5 mg./kg. i.p.,5 (100% dead)
same,"Efficacy Rating, Blowfly Larvae","[2]; 10 mg./kg. i.p., Calcium Salt",5 (100% dead)
same,"Efficacy Rating, Adult Housefly",[3]; 5 mg./kg. i.p.,5 (100% dead)
same,"Efficacy Rating, Adult Housefly","[3]; 10 mg./kg. i.p., Calcium Salt",5 (100% dead)
same,death of guinea pig,"[4]; 5 mg./kg. i.p., one of two animals",Guinea pig died
"CC(C)OC1(C(F)(F)C(F)F)Nc2cc(C(F)(F)F)cc([N+](=O)[O-])c2N1 (centres unmarked) [Example 4, 2-Isopropoxy-2-(1,1,2,2-Tetrafluoroethyl)-4-Nitro-6-(Trifluoromethyl)Benzimidazoline, Potassium Salt]","Efficacy Rating, Blowfly Larvae",[2]; 5 mg./kg. i.p.,5 (100% dead)
same,"Efficacy Rating, Adult Housefly",[3]; 5 mg./kg. i.p.,5 (100% dead)
same,death of guinea pigs,[4]; 10 mg./kg. i.p.,Both guinea pigs died
"O=[N+]([O-])c1cc(C(F)(F)F)cc2c1NC(O)(C(F)(F)C(F)F)N2 (centres unmarked) [Example 7, 2-Hydroxy-2-(1,1,2,2-Tetrafluoroethyl)-4-Nitro-6-(Trifluoromethyl)Benzimidazoline, Silver Salt]",death of guinea pigs,[4]; 25 mg./kg. i.p.,guinea pigs died
same,death of guinea pigs,[4]; 50 mg./kg. i.p.,guinea pigs died
